Laboratory results published in patent publication US8318781B2, “G-protein-conjugated receptor agonist” (Japan Science and Technology Agency, priority 2007, dated 2012).
Read-outs that look alike come from different tables or passages of the source.

Columns and labels:
Assay type in all cases: cell-based
human GPR40 (hGPR40) [1] = target: T1, human GPR40 (hGPR40) (Homo sapiens, UniProt O14842); assay: ERK assay, screening for GPR40 ligands in cell line TXGPR40; conditions: TXGPR40 cells; for ERK/GPR40 10 μM: ligand 10 μM; for ERK/GPR40 10 μM / ERK/GPR40 100 μM: class relative to LA; for ERK/GPR40 100 μM: ligand 100 μM
T1 construct: expressed in transfected cells; doxycycline-inducible expression vector
Protocol: (§1) This Test 1 was carried out by using the following materials and methods.
(§2) (1) In this test, the cell lines TXGPR40 and TXGPR120 were plated in 35-mm dishes in 5×10^5 cells/per dish.
(§3) Each ligand was dissolved in DMSO, diluted tenfold with the medium to make the total amount of 100 μl. DMSO was used as the negative control, and PMA (phorbol-12-myristate-13-acetate) was used as the positive control.
(§4) (3) The medium was removed from the dish of the cell to reduce the total amount of liquid to 0.9 ml.
(§5) (4) The ligand solution was added dropwise to the cell solution, and dispersed by gently shaking the dish, and allowed to react at room temperature.
(§6) (5) After 5 minutes of reaction, the medium was discarded, and the remaining medium on the dish was removed on ice using an aspirator.
(§7) (6) 150 μl of Lysis buffer (50 mM HEPES (pH 7.0), 150 mM NaCl, 10% glycerol, 1% NonidetP-40, 2 mM MgCl2, 1 mM EDTA, 100 mM NaF, 10 mM sodium phosphate, 1 mM Na3VO4, 20 mM β-glycerophosphate, and Proteinase inhibitor) were added, then the cells were collected using a cell scraper.
(§8) (1) The crude enzyme solution mixed with SDS Sample Buffer was subjected to ultrasonication with a sonifier, then incubated at 90° C. for five minutes.
(§9) (2) The mixture was vortexed and centrifuged at 15,000 rpm for five minutes at 4° C.
(§10) (3) The supernatant of the centrifuged sample was applied to two 7.5% acrylamide gel slabs placed in an electrophoresis tank filled with 1×SDS-PAGE Running Buffer (25 mM Tris, 0.2 M Glycin, and 1% SDS). Electrophoresis was carried out under a constant current of 40 mA for about 80 to 90 minutes.
(§11) (1) A PVDF membrane cut in the same size as the gel slab was immersed in methanol for about 15 seconds and then shaken in Transfer Buffer C solution (25 mM Tris, 0.02% SDS, 2% methanol and 40 mM 6-aminohexanoic acid) at room temperature to swell for 15 minutes. Filter paper for blotting was cut into a 10-cm square.
(§12) (2) On the blotting apparatus were placed sequentially two pieces of filter paper immersed in A solution (0.3 M Tris, 0.02% SDS and 2% methanol), two pieces of filter paper immersed in B solution (25 mM Tris, 0.02% SDS and 2% methanol), and the membrane thereon. The gel slab after electrophoresis, and finally two pieces of filter paper immersed in C solution was placed thereon, and the apparatus was closed.
(§13) (3) The protein was transferred to the membrane at 15 V for 30 minutes.
(§14) (1) The following procedure was all carried out at room temperature. After the protein transfer, the membrane was placed into a vial containing 1×TTBS (0.2 M Tris, 1.5 M NaCl, 0.2% Tween 20) and washed for 15 minutes.
(§15) (2) TTBS was discarded, and about 10 ml of Block Ace was added and blocked on a shaker for one hour.
(§16) (1) The primary antibodies (p44/42 MAP Kinase Antibody and Phospho-p44/42 MAP Kinase Antibody) were each diluted 1000-fold with TTBS.
(§17) (2) After blocking, the Block Ace solution was removed, the solution of the primary antibody was added and allowed to react on the shaker for two hours.
(§18) (1) The secondary antibody (Anti-rabbit Ig, Horseradish Peroxidase linked F(ab′)2 fragments) was diluted 5000-fold with TTBS.
(§19) (2) The primary antibody solution was removed and the membrane was washed three times on the shaker in TTBS for five to ten minutes each.
(§20) (3) TTBS was removed and the solution of secondary antibody was added and left for 1 hour on the shaker.
(§21) (1) 2 ml each of Detection Reagent 1 and Detection Reagent 2 from ECL kit were mixed together on ice.
(§22) (2) The solution of secondary antibody was removed from the membrane reacted with the secondary antibody and then washed three times on the shaker in TTBS for five minutes each.
(§23) (3) The liquid was thoroughly removed from the membrane, which was then placed in a plastic bag, and 2 ml of the Detection Reagent mixture was added per each membrane.
(§24) (4) The membrane was kept in contact with a film in the cassette for one to five minutes, and the film was developed using an automatic developing machine.

human GPR120 (hGPR120) [2] = target: T2, human GPR120 (hGPR120) (Homo sapiens, UniProt Q5NUL3); assay: ERK assay, screening for GPR120 ligands in cell line TXGPR120;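 as to ERK/GPR120 10 μM: signals normalized between DMSO and PMA controls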; conditions: for ERK activation for GPR120 (in words) / ERK/GPR120 10 μM / ERK/GPR120 100 μM: TXGPR120 cells; for ERK activation for GPR120 (in words): FIGS. 5-8; for ERK/GPR120 10 μM: ligand 10 μM; for ERK/GPR120 10 μM / ERK/GPR120 100 μM: class relative to LA; for ERK/GPR120 100 μM: ligand 100 μM
T2 construct: expressed in transfected cells; doxycycline-inducible expression vector
T2 sequence (Q5NUL3 1-361): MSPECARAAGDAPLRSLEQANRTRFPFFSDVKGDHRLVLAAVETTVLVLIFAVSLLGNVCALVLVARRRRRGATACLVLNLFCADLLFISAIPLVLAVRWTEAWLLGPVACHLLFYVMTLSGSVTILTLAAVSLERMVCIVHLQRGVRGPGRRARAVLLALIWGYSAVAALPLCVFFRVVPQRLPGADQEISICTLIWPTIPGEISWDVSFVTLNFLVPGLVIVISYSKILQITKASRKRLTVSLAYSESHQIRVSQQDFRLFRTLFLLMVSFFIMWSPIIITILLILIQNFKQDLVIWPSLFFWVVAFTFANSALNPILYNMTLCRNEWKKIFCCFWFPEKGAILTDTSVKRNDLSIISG
Protocol: as §1, §2, §3, §4, §5, §6, §7, §8, §9, §10, §11, §12, §13, §14, §15, §16, §17, §18, §19, §20, §21, §22, §23, §24

human GPR40 (hGPR40) [3] = target: T1, human GPR40 (hGPR40); assay: Determination of intracellular Ca2+ concentration (FLIPR), cell line TXGPR40; conditions: for agonistic activity for GPR40 (in words): cells in which GPR40 has been transgenically expressed; for [Ca^2+]/GPR40 10 μM (ratio vs. LA): relative fluorescence intensity vs LA at 10 μM
Protocol: (§25) (1) In this test, The cell lines TXGPR40, TXGPR120 and GPR120/Flp-in were plated onto a collagen-coated black 96-well plate in 2×10^5 cells/well. The 96-well plates containing the cells were centrifuged and treated with Doxycycline (final concentration 10 μg/mL), incubated in a CO2 incubator for 21 hours, then used for assay.
(§26) (2) The ligand used in this test includes NCP04, NCP14, NCG20, NCG21, NCG22, NCG23, NCP02, NCP03, NCP05, NCP06, NCG14, NCG17, NCG19, NCG28, NCG29, NCG30, NCG31, NCG34, NCG35, NCG37, NCG38, NCG44, NCG45, NCG46, and NCG54. Each ligand was dissolved in DMSO and adjusted to the concentration of 10 mM, then diluted with Hanks' Balanced Salt Solution (pH 7.4) containing 20 mM HEPES (referred to as FLIPR buffer hereinafter) to the final concentration of 1 to 100 μM. 1% DMSO was used as the negative control, and LA was used as the positive control.
(§27) The ligands and controls were placed in different 96-well plates from the plates for the cells.
(§28) (3) The 96-well plate containing the cells was removed from the CO2 incubator. A fluorescent dye prepared in a twofold higher concentration (Ca Assay Kit Component A diluted with FLIPR Buffer) was added in 50 μL/well, then allowed to stand in the dark at room temperature for one hour.
(§29) (4) After one hour, the 96-well plate containing the cells and the 96-well plate in which ligands and controls were prepared were set on FLIPR (Fluorometric Imaging Plate Reader) for determination.
(§30) (5) Fluorometry using FLIPR was carried out at a laser output of 1.0 W for five minutes. […] after the start of the determination, the ligand (25 μL) was added dropwise to the cell plate at a rate of 50 μL/sec. The intensity of fluorescence was automatically digitized by the application program installed in the FLIPR from the image taken by the CCD camera (with exposure time of 0.40 sec). The interval of data sampling was one second for the initial one minute after the start of operation, and six seconds for the subsequent four minutes.
(§31) (6) The maximum fluorescence intensity was obtained from the data showing the change in the fluorescence intensity over time observed in each well. The maximum fluorescence intensity was plotted against ligand concentration, and pEC50 was calculated. The ratio of the fluorescence intensity for each ligand to LA at 10 μM was calculated as the relative intensity of each ligand.

human GPR120 (hGPR120) [4] = target: T2, human GPR120 (hGPR120); assay: Determination of intracellular Ca2+ concentration (FLIPR), cell line TXGPR120; conditions: for agonistic activity for hGPR120 (in words): cells in which GPR120 has been transgenically expressed; for [Ca^2+]/GPR120 10 μM (ratio vs. LA): relative fluorescence intensity vs LA at 10 μM
Protocol: as §25, §26, §27, §28, §29, §30, §31

human GPR120 (hGPR120) [5] = target: T2, human GPR120 (hGPR120); assay: Determination of intracellular Ca2+ concentration (FLIPR), cell line GPR120/Flp-in; conditions: for [Ca^2+]/GPR120/Flp-In 10 μM (ratio vs. LA): relative fluorescence intensity vs LA at 10 μM
Protocol: as §25, §26, §27, §28, §29, §30, §31

T1 sequence (O14842 whole entry): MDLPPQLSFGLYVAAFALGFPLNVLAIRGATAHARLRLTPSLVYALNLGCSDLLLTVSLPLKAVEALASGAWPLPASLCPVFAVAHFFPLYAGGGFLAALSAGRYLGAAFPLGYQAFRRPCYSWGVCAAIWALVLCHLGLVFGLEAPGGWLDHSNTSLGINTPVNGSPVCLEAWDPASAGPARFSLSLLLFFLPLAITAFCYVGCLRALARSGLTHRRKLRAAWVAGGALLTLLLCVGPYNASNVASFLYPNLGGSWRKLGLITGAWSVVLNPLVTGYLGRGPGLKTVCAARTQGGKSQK

ERK/GPR40 10 μM (human GPR40 (hGPR40) [1])	ERK/GPR40 100 μM (human GPR40 (hGPR40) [1])	ERK activation for GPR120 (in words) (human GPR120 (hGPR120) [2])	ERK/GPR120 10 μM (human GPR120 (hGPR120) [2])	ERK/GPR120 100 μM (human GPR120 (hGPR120) [2])	EC50 (human GPR40 (hGPR40) [3])	agonistic activity for GPR40 (in words) (human GPR40 (hGPR40) [3])	[Ca^2+]/GPR40 10 μM (ratio vs. LA) (human GPR40 (hGPR40) [3]; TXGPR40 cells)	EC50 (human GPR120 (hGPR120) [4])	agonistic activity for hGPR120 (in words) (human GPR120 (hGPR120) [4])	[Ca^2+]/GPR120 10 μM (ratio vs. LA) (human GPR120 (hGPR120) [4]; TXGPR120 cells)	EC50 (human GPR120 (hGPR120) [5])	[Ca^2+]/GPR120/Flp-In 10 μM (ratio vs. LA) (human GPR120 (hGPR120) [5]; GPR120/Flp-in cells)	ERK activation for GPR40 (in words) (human GPR40 (hGPR40) [1]; FIGS. 1-4)	selectivity for GPR120 in ERK assay (in words) (human GPR120 (hGPR120) [2]; GPR120 versus GPR40)	EC50 (human GPR40 (hGPR40) [3]; TXGPR40 cells, maximum fluorescence intensity vs ligand concentration, read-out: [Ca^2+]/GPR40 pEC50 (converted))	EC50 (human GPR120 (hGPR120) [4]; TXGPR120 cells, maximum fluorescence intensity vs ligand concentration, read-out: [Ca^2+]/GPR120 pEC50 (converted))	EC50 (human GPR120 (hGPR120) [5]; GPR120/Flp-in cells, maximum fluorescence intensity vs ligand concentration, read-out: [Ca^2+]/GPR120/Flp-In pEC50 (converted))	Structure (SMILES)	selectivity between GPR40 and GPR120 (in words), from Tables 3 and 4 (human GPR120 (hGPR120) [4]; GPR40 versus GPR120, Ca2+ and ERK results)
+ (+ denotes 0 to 100% of LA)	+++ (+++ denotes a higher value than LA)	strongly activate ERK	+++ (+++ denotes a higher value than LA)	+++ (+++ denotes a higher value than LA)	22.4 µM	showed a specific reactivity	0.43	28.8 µM	exhibit a similar effect	0.49	6.92 µM	0.81						Cc1ccnc(N(CCOc2ccc(CCCC(=O)O)cc2)c2ccccc2)c1 [NCG34]	
+++ (+++ denotes a higher value than LA)	+++ (+++ denotes a higher value than LA)	strongly activate ERK	+++ (+++ denotes a higher value than LA)	+++ (+++ denotes a higher value than LA)	7.76 µM	showed a specific reactivity	0.68	16.2 µM	exhibit a similar effect	0.61	4.57 µM	1.00	strongly activated ERK					O=C(O)CCCc1ccc(OCCN(c2ccccc2)c2cc(Cl)ccn2)cc1 [NCG35]	
	+ (+ denotes 0 to 100% of LA)	strongly activate ERK	+++ (+++ denotes a higher value than LA)	+++ (+++ denotes a higher value than LA)			0.28		exhibit a similar effect	0.56		0.91		selective for GRP120	16.2 µM	17.8 µM	3.47 µM	COc1cccc(N(CCOc2ccc(CCCC(=O)O)cc2)c2ccccc2)n1 [NCG37]	acting relatively mildly for GPR40 but acting strongly for GPR120
